Target: T1, ALDH2 (Homo sapiens, UniProt P05091)
T1 sequence (P05091 18-517): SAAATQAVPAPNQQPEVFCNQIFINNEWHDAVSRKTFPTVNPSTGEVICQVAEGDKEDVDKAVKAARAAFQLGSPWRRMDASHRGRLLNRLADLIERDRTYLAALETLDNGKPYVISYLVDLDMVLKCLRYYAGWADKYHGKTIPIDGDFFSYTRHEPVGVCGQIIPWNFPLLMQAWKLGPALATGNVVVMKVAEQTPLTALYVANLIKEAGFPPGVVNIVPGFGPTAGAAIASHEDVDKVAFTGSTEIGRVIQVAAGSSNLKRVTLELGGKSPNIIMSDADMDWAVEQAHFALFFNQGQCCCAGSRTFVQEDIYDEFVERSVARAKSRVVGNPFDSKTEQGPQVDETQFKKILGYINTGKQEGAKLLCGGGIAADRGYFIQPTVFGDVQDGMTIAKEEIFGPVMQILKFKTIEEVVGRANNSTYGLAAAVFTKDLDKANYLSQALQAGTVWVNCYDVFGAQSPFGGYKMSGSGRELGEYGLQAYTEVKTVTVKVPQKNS
Assay: Selectivity biochemical assay, NAD(P)H-Glo Detection System
Method: Materials: ALDH2 was purchased from Abnova. Tris(hydroxymethyl)aminomethane (Tris) was purchased from MP Biomedicals. TCEP, ethylenediaminetetraacetic acid (EDTA), propionaldehyde, DMSO and Tween-20 were purchased from Sigma. Nicotinamide adenine dinucleotide (NAD) was obtained from Abcam. The NAD(P)H-Glo™ Detection System was purchased from Promega. White, non-binding surface, 384 well plates were supplied by Corning (#3574).
Method: Inhibition of ALDH1A3 was assessed using the NAD(P)H-Glo™ Detection System (Cat. No. G9062) from Promega. This assay detects the production of NADH from NAD by ALDH1A3 via the coupled enzymatic conversion of a proluciferin reductase substrate to generate a luminescent signal. Inhibition of ALDH1A3 by small molecule inhibitors will result in reduction or abrogation of luminescence signal increase above background. Inhibition of ALDH1A1, ALDH1A2 and ALDH2 (selectivity assays) were assessed using the same assay.
Compounds were dosed into Corning 384 well assay plates using an Echo acoustic dispenser to give 10 point curves in a 3-fold dilution series. Compounds were dispensed from a 20 mM DMSO stock and initially screened at a top concentration of 20 μM (ALDH1A3) or 250 μM (ALDH1A1, ALDH1A2 & ALDH2). Enzyme was added to the plate in a 5 μL volume, according to the final concentrations in table 1 below, and pre-incubated with compound for 30 minutes at room temperature before the addition of 5 μL of the substrate (propionaldehyde) and cofactor (NAD), to effect final concentrations equal to the Km as shown in Table 1. The assay buffer used consisted of 40 mM Tris for 1A1 (pH 7.6), 1A2 (pH 7.6) and 1A3 (pH 9.0) and 10 mM Tris for ALDH2 (pH 8.0) supplemented with 1 mM TCEP, 0.01% Tween-20, 0.1 mM EDTA. The reaction mix was incubated at 26° C. on a shaking incubator for 30 minutes before being stopped by the addition of 10 μL of the Promega detection reagent and 100×IC50 of inhibitors of the respective isoforms. After stopping the reaction the plate was incubated for 60 minutes at room temperature and the luminescence signal read on a PheraStar FS microplate reader (BMG Labtech) and resulting IC50 values were calculated using Dotmatics software.
Enzyme, substrate and cofactor concentrations were selected to ensure the reaction ran under initial velocity conditions.

| Structure (SMILES) | IC50 [µM] |
| --- | --- |
| Cc1nc(C2CCCN2CCOc2ccc3c(c2)CCC(=O)N3)cs1 (centres unmarked) [ALDHI-2033, 6-[2-[2-(2-methylthiazol-4-yl)pyrrolidin-1-yl]ethoxy]-3,4-dihydro-1H-quinolin-2-one] | ≥ 100 |
| Cc1ccc(C2CCCN2CCOc2ccc3c(c2)CCC(=O)N3)cn1 (centres unmarked) [ALDHI-2030, 6-[2-[2-(6-methyl-3-pyridyl)pyrrolidin-1-yl]ethoxy]-3,4-dihydro-1H-quinolin-2-one] | ≥ 100 |
| O=C1CCc2cc(OCCN3CCCCC3c3cccc(F)c3)ccc2N1 (centres unmarked) [ALDHI-2038, 6-[2-[2-(3-fluorophenyl)-1-piperidyl]ethoxy]-3,4-dihydro-1H-quinolin-2-one] | ≥ 100 |
| C[C@H](c1ccccc1)N(CCO)CCOc1ccc2c(c1)CCC(=O)N2 [ALDHI-3006, 6-[2-[2-hydroxyethyl-[(1R)-1-phenylethyl]amino]ethoxy]-3,4-dihydro-1H-quinolin-2-one] | ≥ 100 |
| O=C1CCc2cc(OCCN3CCCC3c3cc(F)cc(F)c3)ccc2N1 (centres unmarked) [ALDHI-2032, 6-[2-[2-(3,5-difluorophenyl)pyrrolidin-1-yl]ethoxy]-3,4-dihydro-1H-quinolin-2-one] | ≥ 100 |
| O=C1CCc2cc(OCCN3CC(F)CC3c3cccc(F)c3)ccc2N1 (centres unmarked) [ALDHI-2052, 6-[2-[4-fluoro-2-(3-fluorophenyl)pyrrolidin-1-yl]ethoxy]-3,4-dihydro-1H-quinolin-2-one] | ≥ 100 |
| CN(CCOc1ccc2c(c1)CCC(=O)N2)C(=O)c1cccnc1 [ALDHI-3013, N-methyl-N-[2-[(2-oxo-3,4-dihydro-1H-quinolin-6-yl)oxy]ethyl]pyridine-3-carboxamide] | ≥ 100 |
| O=C1CCc2cc(OCCN3CCOCC3c3cccc(F)c3)ccc2N1 (centres unmarked) [ALDHI-2031, 6-[2-[3-(3-fluorophenyl)morpholin-4-yl]ethoxy]-3,4-dihydro-1H-quinolin-2-one] | ≥ 100 |
| O=C1COc2cc(OCCN3CCCC3c3cccc(F)c3)ccc2N1 (centres unmarked) [ALDHI-2009, 7-[2-[2-(3-fluorophenyl)pyrrolidin-1-yl]ethoxy]-4H-1,4-benzoxazin-3-one] | ≥ 100 |
| O=C1CCc2cc(OCCN3C(=O)CCC3c3ccccc3)ccc2N1 (centres unmarked) [ALDHI-2051, 6-[2-(2-oxo-5-phenyl-pyrrolidin-1-yl)ethoxy]-3,4-dihydro-1H-quinolin-2-one] | ≥ 100 |
| CCC1Oc2cc(OCCN3CCCC3c3cccc(F)c3)ccc2NC1=O (centres unmarked) [ALDHI-2045, 2-ethyl-7-[2-[2-(3-fluorophenyl)pyrrolidin-1-yl]ethoxy]-4H-1,4-benzoxazin-3-one] | ≥ 100 |
| O=C1CCc2cc(OCCN3CCCC3c3ccccn3)ccc2N1 (centres unmarked) [ALDHI-2006, 6-[2-[2-(2-pyridyl)pyrrolidin-1-yl]ethoxy]-3,4-dihydro-1H-quinolin-2-one] | ≥ 100 |
| CC1(c2ccccc2)COCCN1CCOc1ccc2c(c1)CCC(=O)N2 (centres unmarked) [ALDHI-2040, 6-[2-(3-methyl-3-phenyl-morpholin-4-yl)ethoxy]-3,4-dihydro-1H-quinolin-2-one] | ≥ 100 |
| Cn1cc(C2CCCN2CCOc2ccc3c(c2)SCC(=O)N3)cn1 (centres unmarked) [ALDHI-2026, 7-[2-[2-(1-methylpyrazol-4-yl)pyrrolidin-1-yl]ethoxy]-4H-1,4-benzothiazin-3-one] | ≥ 100 |
| O=C1CCc2cc(NC(=O)c3c[nH]nc3-c3cccc(F)c3)ccc2N1 [ALDHI-1006, 3-(3-fluorophenyl)-N-(2-oxo-1,2,3,4-tetrahydroquinolin-6-yl)-1H-pyrazole-4-carboxamide] | 10 to 100 |
| O=C1CCc2cc(NC(=O)c3scnc3-c3ccccc3Cl)ccc2N1 [ALDHI-1012, 4-(2-chlorophenyl)-N-(2-oxo-3,4-dihydro-1H-quinolin-6-yl)thiazole-5-carboxamide] | ≥ 100 |
| O=C1CCc2cc(OCCN3CCC[C@H]3c3cccc(F)c3)ccc2N1 [ALDHI-2018, 6-[2-[(2S)-2-(3-fluorophenyl)pyrrolidin-1-yl]ethoxy]-3,4-dihydro-1H-quinolin-2-one] | ≥ 100 |
| O=C1CCc2cc(NC(=O)c3ncsc3-c3cccnc3)ccc2N1 [ALDHI-1010, N-(2-oxo-3,4-dihydro-1H-quinolin-6-yl)-5-(3-pyridyl)thiazole-4-carboxamide] | ≥ 100 |

| Structure (SMILES) | IC50 [µM] |
| --- | --- |
| O=C1CCCc2cc(OCCN3CCCC3c3cccc(F)c3)ccc2N1 (centres unmarked) [ALDHI-2020, 7-[2-[2-(3-fluorophenyl)pyrrolidin-1-yl]ethoxy]-1,3,4,5-tetrahydro-1-benzazepin-2-one] | ≥ 100 |
| O=C1CCc2cc(OCCN3CCCC3c3ccccc3F)ccc2N1 (centres unmarked) [ALDHI-2002, 6-[2-[2-(2-fluorophenyl)pyrrolidin-1-yl]ethoxy]-3,4-dihydro-1H-quinolin-2-one] | ≥ 100 |
| O=C1CCc2cc(OCCN3CCCC3c3ccccc3)ccc2N1 (centres unmarked) [ALDHI-2019, 6-[2-(2-phenylpyrrolidin-1-yl)ethoxy]-3,4-dihydro-1H-quinolin-2-one] | ≥ 100 |
| Cc1cccc(C2CCCN2CCOc2ccc3c(c2)CCC(=O)N3)c1 (centres unmarked) [ALDHI-2011, 6-[2-[2-(m-tolyl)pyrrolidin-1-yl]ethoxy]-3,4-dihydro-1H-quinolin-2-one] | ≥ 100 |
| O=C1CCc2cc(NC(=O)c3sccc3-c3cccc(F)c3)ccc2N1 [ALDHI-1022, 3-(3-fluorophenyl)-N-(2-oxo-3,4-dihydro-1H-quinolin-6-yl)thiophene-2-carboxamide] | ≥ 100 |
| O=c1ccc2cc(OCCN3CCCC3c3cccc(F)c3)ccc2[nH]1 (centres unmarked) [ALDHI-2022, 6-[2-[2-(3-fluorophenyl)pyrrolidin-1-yl]ethoxy]-1H-quinolin-2-one] | ≥ 100 |
| CN(CCOc1ccc2c(c1)CCC(=O)N2)Cc1cccc(F)c1 [ALDHI-3001, 6-[2-[(3-fluorophenyl)methyl-methyl-amino]ethoxy]-3,4-dihydro-1H-quinolin-2-one] | ≥ 100 |
| O=C1CCc2cc(OCCN3CCC3c3cccc(F)c3)ccc2N1 (centres unmarked) [ALDHI-2021, 6-[2-[2-(3-fluorophenyl)azetidin-1-yl]ethoxy]-3,4-dihydro-1H-quinolin-2-one] | ≥ 100 |
| O=C1CCc2cc(OCCn3nccc3-c3cccc(F)c3)ccc2N1 [ALDHI-2023, 6-[2-[5-(3-fluorophenyl)pyrazol-1-yl]ethoxy]-3,4-dihydro-1H-quinolin-2-one] | ≥ 100 |
| O=C1CCc2cc(NC(=O)c3ccccc3-c3cccc(F)c3)ccc2N1 [ALDHI-1007, 3′-fluoro-N-(2-oxo-1,2,3,4-tetrahydroquinolin-6-yl)-[1,1′-biphenyl]-2-carboxamide] | ≥ 100 |
| O=C1CCc2cc(OCCN(CCO)Cc3cccc(F)c3)ccc2N1 [ALDHI-3002, 6-[2-[(3-fluorophenyl)methyl-(2-hydroxyethyl)amino]ethoxy]-3,4-dihydro-1H-quinolin-2-one] | ≥ 100 |
| O=C1CCc2cc(OCCN3CCC[C@@H]3c3cccc(F)c3)ccc2N1 [ALDHI-2007, 6-[2-[(2R)-2-(3-fluorophenyl)pyrrolidin-1-yl]ethoxy]-3,4-dihydro-1H-quinolin-2-one] | ≥ 100 |
| CN(C)c1nc(-c2cccc(F)c2)c(C(=O)Nc2ccc3c(c2)CCC(=O)N3)s1 [ALDHI-1002, 2-(dimethylamino)-4-(3-fluorophenyl)-N-(2-oxo-3,4-dihydro-1H-quinolin-6-yl)thiazole-5-carboxamide] | ≥ 100 |
| CCn1cc(C2CCCN2CCOc2ccc3c(c2)CCC(=O)N3)cn1 (centres unmarked) [ALDHI-2016, 6-[2-[2-(1-ethylpyrazol-4-yl)pyrrolidin-1-yl]ethoxy]-3,4-dihydro-1H-quinolin-2-one] | ≥ 100 |
| CC1(c2cccc(F)c2)CCCN1CCOc1ccc2c(c1)CCC(=O)N2 (centres unmarked) [ALDHI-2037, 6-[2-[2-(3-fluorophenyl)-2-methyl-pyrrolidin-1-yl]ethoxy]-3,4-dihydro-1H-quinolin-2-one] | ≥ 100 |
| CC1(C)Oc2cc(OCCN3CCCC3c3cccc(F)c3)ccc2NC1=O (centres unmarked) [ALDHI-2043, 7-[2-[2-(3-fluorophenyl)pyrrolidin-1-yl]ethoxy]-2,2-dimethyl-4H-1,4-benzoxazin-3-one] | ≥ 100 |
| O=C1CCc2cc(OCCN3CCCC3c3ccncc3)ccc2N1 (centres unmarked) [ALDHI-2004, 6-[2-[2-(4-pyridyl)pyrrolidin-1-yl]ethoxy]-3,4-dihydro-1H-quinolin-2-one] | ≥ 100 |

From patent US20240174634A1, “Aldehyde Dehydrogenase Inhibitors and Their Therapeutic Use” (priority 2020, published 2024)
